The record followed here is patent US20140243292A1, “SUBSITUTED 2-(CHROMAN-6-YLOXYL)-THIAZOLES AND THEIR USE AS PHARMACEUTICALS” (Sanofi, priority 2011, published 2014).

This experiment concerns the target T1, human NCX1 (Homo sapiens, UniProt P32418).
T1 construct: expressed in transfected cells
Briefly: NCX1 inhibition, reverse mode (Ca2+ influx into cells), FLIPR Fluo-4 assay. Type of experiment: cell-based. The conditions noted are these: inhibition of NCX1 in reverse mode (Ca2+ influx into cells); read-out: NCX1rv IC50. The procedure, abridged: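 Max−min Fluo-4 fluorescence (520 nm, FLIPR, 240 points at 2 s) after 20 µM final gramicidin, which drives Na+ loading and reverse-mode Ca2+ entry, gave % inhibition and IC50. Test compound was preincubated 45 min at 16 °C with Fluo-4-loaded CHO cells stably expressing human NCX1, in pH 7.4 buffer containing 3.5 mM CaCl2 and probenecid.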

Structures are written as SMILES.

The term IC50 denotes the midpoint of a concentration-inhibition curve. Regarding `Cc1ccccc1C1CCc2cc(Oc3ncc(C(=O)NCCO)s3)ccc2O1` (centres unmarked) [Example 299, 2-(2-o-Tolyl-chroman-6-yloxy)-thiazole-5-carboxylic acid (2-hydroxy-ethyl)-amide], the IC50 turned out to be 400 nM.

As to `Cc1ccccc1C1CCc2cc(Oc3ncc(CNC(=O)c4ccno4)s3)ccc2O1` (centres unmarked) [Example 329, Isoxazole-5-carboxylic acid [2-(2-o-tolyl-chroman-6-yloxy)-thiazol-5-ylmethyl]-amide], the concentration for half-maximal inhibition (IC50) came out at 600 nM.
